Measurements published in US9642804B2, “Cationic lipids with various head groups for oligonucleotide delivery” (priority 2009, dated 2017).

Assays:
[1] = system: mRNA transcript for the firefly (Photinus pyralis) luciferase gene; experiment: Mouse in vivo efficacy, luciferase mouse model (liver bioluminescence, IVIS); details: for Average % Inhibition of Bioluminescence: LNP (cationic lipid/cholesterol/PEG-DMG 60/38/2) with Luc siRNA, tail vein, 48 hours post dose, relative to pre-dose
Description: (§1) LNPs utilizing Compound 9 or 12, in the nominal compositions described immediately above, were evaluated for in vivo efficacy and induction of inflammatory cytokines in a luciferase mouse model. The siRNA targets the mRNA transcript for the firefly (Photinus pyralis) luciferase gene (Accession # M15077). […] The in vivo luciferase model employs a transgenic mouse in which the firefly luciferase coding sequence is present in all cells. ROSA26-LoxP-Stop-LoxP-Luc (LSL-Luc) transgenic mice licensed from the Dana Farber Cancer Institute are induced to express the Luciferase gene by first removing the LSL sequence with a recombinant Ad-Cre virus (Vector Biolabs). Due to the organo-tropic nature of the virus, expression is limited to the liver when delivered via tail vein injection. Luciferase expression levels in liver are quantitated by measuring light output, using an IVIS imager (Xenogen) following administration of the luciferin substrate (Caliper Life Sciences). Pre-dose luminescence levels are measured prior to administration of the RDVs. Luciferin in PBS (15 mg/mL) is intraperitoneally (IP) injected in a volume of 150 uL. After a four minute incubation period mice are anesthetized with isoflurane and placed in the IVIS. imager. The RDVs (containing siRNA) in PBS vehicle were tail vein injected in a volume of 0.2 mL. Final dose levels ranged from 0.3 to 3 mg/kg siRNA. PBS vehicle alone was dosed as a control. Three hours post dose, mice were bled retro-orbitally to obtain plasma for cytokine analysis. Mice were imaged 48 hours post dose using the method described above. Changes in luciferin light output directly correlate with luciferase mRNA levels and represent an indirect measure of luciferase siRNA activity. In vivo efficacy results are expressed as % inhibition of luminescence relative to pre-dose luminescence levels. Plasma cytokine levels were determined using the SearchLight multiplexed cytokine chemoluminescent array (Pierce/Thermo). Systemic administration of the luciferase siRNA RDVs decreased luciferase expression in a dose dependant manner. […] Compound 12, (Table 1 and FIG. 2). […] However, average cytokine induction was lower in the animals dosed with the Compound 9 RDV, relative to the Compound 12 RDV.(FIG. 1).

[2] = Rat in vivo toxicity, serum ALT and AST; set-up: species or system Sprague-Dawley rat; details: ApoB siRNA RDV; for LFTs relative to PBS control dosed rats: serum 24 hours after dosing
Description: After LNP administration, rats are placed in cages with normal diet and water present. Six hours post dose, food is removed from the cages. Animal necropsy is performed 24 hours after LNP dosing. Rats are anesthetized under isoflurane for 5 minutes, then maintained under anesthesia by placing them in nose cones continuing the delivery of isoflurane until ex-sanguination is completed. Blood is collected from the vena cava using a 23 guage butterfly venipuncture set and aliquoted to serum separator vacutainers for serum chemistry analysis. Punches of the excised caudate liver lobe are taken and placed in RNA Later (Ambion) for mRNA analysis. Preserved liver tissue was homogenized and total RNA isolated using a Qiagen bead mill and the Qiagen miRNA-Easy RNA isolation kit following the manufacturer's instructions. Liver ApoB mRNA levels were determined by quantitative RT-PCR. Message was amplified from purified RNA utilizing a rat ApoB commercial probe set (Applied Biosystems Cat # RN01499054_ml). The PCR reaction was performed on an ABI 7500 instrument with a 96-well Fast Block. The ApoB mRNA level is normalized to the housekeeping PPIB (NM 011149) mRNA. PPIB mRNA levels were determined by RT-PCR using a commercial probe set (Applied Biosytems Cat. No. Mm00478295_ml). Results are expressed as a ratio of ApoB mRNA/PPIB mRNA. All mRNA data is expressed relative to the PBS control dose. Serum ALT and AST analysis were performed on the Siemens Advia 1800 Clinical Chemistry Analyzer utilizing the Siemens alanine aminotransferase (Cat# 03039631) and aspartate aminotransferase (Cat# 03039631) reagents.

[3] = Rhesus monkey in vivo toxicity, serum ALT and AST; set-up: species or system Macaca mulatta (rhesus) monkey; details: ApoB siRNA RDV; 3.6 mg/kilogram siRNA intravenous
Description: (§2) LNPs utilizing Compounds 9 or 12 in the nominal compositions described above, were evaluated for in vivo efficacy and increases in alanine amino transferases (ALT) and aspartate amino transferase (AST) in male or female Macaca mulatta (rhesus) monkeys. The siRNA targets the mRNA transcript for the ApoB gene (Accession # XM 001097404). […] The RDVs (containing siRNA) in PBS vehicle were administered by intravenous injection in the saphenous vein at an injection rate of 20 mL/minute to a dose level of 3.6 mg/kilogram siRNA. The injection volumes were from 1.9 to 2.1 mL/kilogram and monkeys ranged in weight from 2.5 to 4.5 kilograms. Each RDV or PBS control was administered to two monkeys. At multiple days post dose, 1 mL blood samples were drawn from the femoral artery for serum chemistry analysis. Monkeys were fasted overnight prior to blood draws. Serum ALT and AST analysis were performed on the Siemens Advia 1800 Clinical Chemistry Analyzer utilizing the Siemens alanine aminotransferase (Cat# 03039631) and aspartate aminotransferase (Cat# 03039631) reagents. As a measure of efficacy, LDL-C was monitored as a downstream surrogate marker of ApoB mRNA reduction. At eight days post systemic administration, of RDVs containing Compounds 9 or 12, reduced serum levels of LDL-C to less than 50% of pre-dose levels (FIG. 4). The RDV containing Compound 9 reduced LDL-C levels to a greater extent than the RDV containing Compound 12 (ave.: −63% vs. −53%). ALT and AST were elevated relative to predose values in monkeys treated with both Compounds 9 and 12 RDVs (FIG. 4).

cytokines IL-6 and mKC = experiment: Mouse in vivo cytokine induction 3 hours post injection (plasma, SearchLight array); details: Luc siRNA RDV; plasma three hours post dose
Description: as §1

[4] = system: mRNA transcript for the ApoB gene; experiment: Rhesus monkey in vivo efficacy, serum LDL-C as surrogate marker of ApoB mRNA reduction; set-up: species or system Macaca mulatta (rhesus) monkey; details: ApoB siRNA RDV; 3.6 mg/kilogram siRNA intravenous; average of two monkeys
Description: as §2, with “The RDV containing Compound 9 reduced LDL-C levels to a greater extent than the RDV containing Compound 12 (ave.: −63% vs. −53%). ALT and AST were elevated relative to predose values in monkeys treated with both Compounds 9 and 12 RDVs (FIG. 4).” left out

[5] = rat serum 24 hours after dosing

| Compound | Average % Inhibition of Bioluminescence ([1]; 0.1 mg Kg^−1) | Average % Inhibition of Bioluminescence ([1]; 0.3 mg Kg^−1) | Average % Inhibition of Bioluminescence ([1]; 1.0 mg Kg^−1) | Efficacy in decreasing luciferase expression, comparison of the RDVs ([1]; Luc siRNA RDV, Compound 9 RDV versus Compound 12 RDV) | ALT levels, comparison of the RDVs [2, 5] | LFTs relative to PBS control dosed rats [2] | ALT relative to predose values [3] | AST relative to predose values [3] | Elevation of ALT, comparison of the RDVs [3] | Average cytokine induction, Compound 9 RDV relative to Compound 12 RDV (cytokines IL-6 and mKC) | Mouse plasma level of IL-6 relative to the PBS control (cytokines IL-6 and mKC) | Mouse plasma level of mKC relative to the PBS control (cytokines IL-6 and mKC) | Reduction of LDL-C levels (ave.) [4] | AST levels, comparison of the RDVs [2, 5] | Elevation of AST, comparison of the RDVs [3] |
| --- | --- | --- | --- | --- | --- | --- | --- | --- | --- | --- | --- | --- | --- | --- | --- |
| CCCCCCCC/C=C\CCCCCCCCOC[C@@H](COCCCCCCO[C@H]1CC[C@@]2(C)C(=CC[C@@H]3C2CC[C@@]2(C)C3CC[C@@H]2[C@H](C)CCCC(C)C)C1)N(C)C (stereo partly shown) [Compound 9] | 80% | 89% | 91% | Greater efficacy | increased to a greater extent | An increase in LFTs | elevated | elevated | approximately equivalent | lower | significantly increased | significantly increased | −63% |  |  |
| CCCCC/C=C\C/C=C\CCCCCCCCOCC(CN(C)C)OCCCCCCCCO[C@H]1CC[C@@]2(C)C(=CC[C@H]3[C@@H]4CC[C@H]([C@H](C)CCCC(C)C)[C@@]4(C)CC[C@@H]32)C1 (stereo partly shown) [Compound 12, S-Octyl CLinDMA, reference compound] | 54% | 74% | 88% |  |  | An increase in LFTs | elevated | elevated | approximately equivalent |  | significantly increased | significantly increased | −53% | increased more strongly | elevated to a markedly higher level |
